This note sets out measurements from US20080009025A1, “PROTEIN KINASE REGULATION” (priority 1999, published 2008).

The target in this assay is T1, PDK1 (Homo sapiens, UniProt O15530).
T1 sequence (O15530 1-556): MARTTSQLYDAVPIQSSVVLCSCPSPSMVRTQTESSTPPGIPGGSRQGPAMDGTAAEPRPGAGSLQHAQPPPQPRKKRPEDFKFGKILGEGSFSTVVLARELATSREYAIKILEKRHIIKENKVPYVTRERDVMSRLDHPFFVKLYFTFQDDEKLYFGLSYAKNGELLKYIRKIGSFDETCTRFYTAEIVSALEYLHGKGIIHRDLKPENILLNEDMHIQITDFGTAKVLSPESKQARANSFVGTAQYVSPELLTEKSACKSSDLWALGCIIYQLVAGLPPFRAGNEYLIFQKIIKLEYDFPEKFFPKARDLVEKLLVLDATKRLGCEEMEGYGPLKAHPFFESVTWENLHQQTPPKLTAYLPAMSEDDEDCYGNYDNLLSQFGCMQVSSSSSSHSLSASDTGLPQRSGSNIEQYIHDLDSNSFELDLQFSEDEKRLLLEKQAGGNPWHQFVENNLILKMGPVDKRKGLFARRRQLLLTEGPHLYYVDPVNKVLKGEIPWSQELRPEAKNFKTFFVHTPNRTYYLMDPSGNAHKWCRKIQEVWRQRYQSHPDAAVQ
The assay is described as follows: Phosphorylation of GST-p70 S6K-T2 by PDK1 in vitro (32P autoradiography). Set-up: made in house; host or cells: 293 cells or E. coli. The note with it: GST-PDK1 50 nM. The assay is classed as biochemical. The protocol:
FIG. 1. PIF prevents PDK1 from phosphorylating p70 S6K in vitro. GST-p70 S6K lacking the C-terminal 104 amino acids (GST-p70 S6KT2) (1 μg) was incubated for 30 min at 30° C. with Mg [γ^32P] ATP and GST-PDK1 (50 nM) in the presence or absence of either wild type (wt) GST-PIF or D978A GST-PIF (1.5 μM), or the indicated PIF peptides (4 μM) in a final volume of 20 μl. The reactions were terminated by making the solutions 1% in SDS, the samples subjected to SDS-polyacylamide gel electrophoresis, and the phosphorylation assessed by autoradiography of the gel. The position in the gel where GST-p70 S6KT2 (73 kDa) migrates is indicated with an arrow. The only other ^32P-labelled protein on the gel which is not shown, corresponded to autophosphorylation of PDK1 and contained ˜10 fold lower levels of ^32P-radioactivity than that of the GST-p70 S6T2 phosphorylated by PDK1 in the absence of PIF. A high amount of PDK1 is used in this experiment to achieve a near maximal phosphorylation of GST-p70 S6T2. If the reactions were carried out at a 10-fold lower concentration of PDK1 under conditions where the phosphorylation of GST-p70 S6T2 by PDK1 is linear with time and the amount of substrate used, then PIF still prevented the phosphorylation of GST-p70 S6T2 (data not shown). wt indicates wild type and PSer indicates phospho-serine. The results of a duplicate experiment for each condition are shown, and similar findings were obtained in five separate experiments.
Preparation of insect cell His-p70 S6K. p70 S6K with a His-epitope tag at its N-terminus lacking the carboxy terminal 104 residues is termed p70 S6K-T2. In order to prepare wild type and the mutant 412E-p70 S6K-T2 the cDNA for these constructs was amplified by PCR from the pMT2 vector encoding these forms of p70 S6K [6] using the following oligonucleotides: 5′-AGGATCCACCATGCACCATCACCATCACCATATGAGGCGAGCAAGGAGGCGG-3′ and 5′-GCGGCCGCTCAACTTTCAAGTACAGATGGAGCC-3′. The PCR products were then subcloned into the BamH1/Not1 sites of the pFASTBAC 1 vector and this vector was used to generate recombinant baculovirus using the Bac-to-Bac system (Life Technologies Inc). The resulting viruses, encoded p70 S6K-T2 or 412E-p70 S6K-T2 with an N-terminal hexahistidine sequence, and was used to infect Sf21 cells (1.5×10^6/m) at a multiplicity of infection of 5. The infected cells were harvested 72 h post-infection and the His-p70 S6K proteins purified by Ni^2+/NTA (nitrilotriacetic acid)-agarose chromatography as described previously for PKBβ [25]. […]

Where a SMILES comes first, the peptide text is derived from it.

Consider `CC[C@H](C)[C@H](NC(=O)[C@H](Cc1ccc(O)cc1)NC(=O)[C@H](CC(=O)O)NC(=O)[C@H](Cc1ccccc1)NC(=O)[C@H](CC(=O)O)NC(=O)[C@H](CCCNC(=N)N)NC(=O)[C@H](Cc1ccccc1)NC(=O)[C@H](CCSC)NC(=O)[C@H](CCC(=O)O)NC(=O)[C@H](CCC(N)=O)NC(=O)[C@H](CCC(=O)O)NC(=O)[C@H](CCC(=O)O)NC(=O)[C@H](CCC(=O)O)NC(=O)[C@H](CO)NC(=O)[C@H](CC(C)C)NC(=O)[C@@H](NC(=O)[C@H](CCCNC(=N)N)NC(=O)[C@@H]1CCCN1C(=O)[C@H](CCC(=O)O)NC(=O)[C@@H](N)CCCNC(=N)N)[C@@H](C)CC)C(=O)N[C@@H](C)C(=O)N[C@@H](CC(=O)O)C(=O)N[C@@H](Cc1c[nH]c2ccccc12)C(=O)N[C@@H](CS)C(=O)O` [PIFtide] (H-REPRILSEEEQEMFRDFDYIADWC-OH; N-terminus and C-terminus assumed), for which the “effect on phosphorylation of GST-p70 S6K-T2 by PDK1” value (“effect on phosphorylation” for short) (peptide 4 μM) was “unable to phosphorylate”.

In the case of “GST-PIF: glutathione S-transferase fused to the last 77 residues of PRK2 (PIF)”, the “effect on phosphorylation” value (GST fusion 1.5 μM) is “unable to phosphorylate”.

Take `CC[C@H](C)[C@H](NC(=O)[C@H](CCCNC(=N)N)NC(=O)[C@@H]1CCCN1C(=O)[C@H](CCC(=O)O)NC(=O)[C@@H](N)CCCNC(=N)N)C(=O)N[C@@H](CC(C)C)C(=O)N[C@@H](CO)C(=O)N[C@@H](CCC(=O)O)C(=O)N[C@@H](CCC(=O)O)C(=O)N[C@@H](CCC(=O)O)C(=O)N[C@@H](CCC(N)=O)C(=O)N[C@@H](CCC(=O)O)C(=O)N[C@@H](CCSC)C(=O)N[C@@H](Cc1ccccc1)C(=O)N[C@@H](CCCNC(=N)N)C(=O)N[C@@H](CC(=O)O)C(=O)N[C@@H](Cc1ccccc1)C(=O)N[C@@H](C)C(=O)N[C@@H](Cc1ccc(O)cc1)C(=O)N[C@@H](CC(C)C)C(=O)N[C@@H](C)C(=O)N[C@@H](CC(=O)O)C(=O)N[C@@H](Cc1c[nH]c2ccccc12)C(=O)N[C@@H](CS)C(=O)O` [D978A-PIFtide] (H-REPRILSEEEQEMFRDFAYLADWC-OH; N-terminus and C-terminus assumed): the “effect on phosphorylation” value (peptide 4 μM) was “poorly inhibited”.
